{
  "source": "patent US7432295B2",
  "about": "“Preparation of compounds useful for the detection of hypoxia” (The Trustees of The University of Pennsylvania, priority 1999, dated 2008)",
  "key": {"[1]": {"conditions": "cited from earlier work"}, "hypoxic tumors": {"tested_on": "hypoxic tumors", "conditions": "in vivo; cited from earlier work"}, "[2]": {"assay": "Distribution of radioactive drug in various organs and tissues of tumor-bearing rats (γ-counter)", "format": "in vivo, male Buffalo rats", "conditions": "I/V", "method": "To measure the distribution of radioactive drug in various organs and tissues, the solution of […] in saline buffer was injected I/V into 3 male Buffalo rats. […] The radioactivity of samples was measured by γ-counter and corrected for weight and the time of decay.\nResults from 3 animals are shown."}, "[3]": {"tested_on": "hypoxic Q7 tumor (Morris 7777 hepatoma)", "assay": "PET analysis of a tumor-bearing rat treated with [18F]-EF5", "format": "in vivo, male Buffalo rats", "conditions": "rat bearing Q7 tumor in the leg, 150 minutes post injection", "method": "The dark spot on the right side of the image represents a tumor and the dark spot in the middle of the image represents a bladder.\nFIG. 3 illustrates a PET image of a tumor-bearing rat treated with 18-F-labeled EF5, 150 minutes post injection. The dark spot in the right side of the image represents the tumor and the dark spot in the middle of the image represents the bladder.\nQ7 cells were obtained from the American Type Culture Collection (ATCC). They were maintained in exponential growth by transfers at 3.5 day intervals with standard culture conditions. Growth medium was Eagle's NEM supplemented with 15% fetal calf serum and standard penicillin and streptomycin.\nAll animal studies conformed to the regulations of the University of Pennsylvania Institutional Animal Care and Use Committee. Male Buffalo rats (Harlan Sprague Dawley, Indianapolis, Ind., USA) were used for all studies. Donor tumors were created by injecting 1 million Q7 cells subcutaneously into the thigh region. The average growth time to achieve a 1 cm diameter tumor was 21 days. Tumors of less than 2 g were used in the experiments."}, "[4]": {"conditions": "multiple radioactive products distinct from parent drug following renal clearance; cited from earlier work"}},
  "note": "Where “and” joins values, the source holds several entries; their conditions need not be identical. Identical values can stand only once.",
  "data": [
    {"smiles": "O=C(Cn1ccnc1[N+](=O)[O-])NCC(F)(F)C(F)(F)F", "note": "[EF5, 2-(2-nitro-1H-imidazol-1-yl)-N-(2,2,3,3,3-pentafluoropropyl)acetamide]", "values": [
      {"measurement": "Drug stability in vivo", "setting": "[1]", "value": "high drug stability in vivo"},
      {"measurement": "Blood-brain barrier passage", "setting": "[1]; in vivo", "value": "ability to cross blood-brain barrier"}
    ]},
    {"smiles": "O=C(Cn1ccnc1[N+](=O)[O-])NCCCF", "note": "[[^18F]-EF1]", "values": [
      {"measurement": "Biodistribution", "setting": "hypoxic tumors", "value": "relatively uniform biodistribution limited by slow equilibration with brain tissue"},
      {"measurement": "Labeling of hypoxic tumors", "setting": "hypoxic tumors", "value": "good potential for labeling of hypoxic tumors"}
    ]},
    {"smiles": "O=C(Cn1ccnc1[N+](=O)[O-])NCC(F)(F)C(F)(F)F", "note": "[[^18F]-EF5, [^18F]-2-(2-Nitro-1H-imidazol-1-yl)-N-(2,2,3,3,3-pentafluoropropyl)-acetamide]", "values": [
      {"measurement": "Tissue distribution of [^18F]-EF5 in rats bearing tumors", "setting": "[2]; Blood, 3 hrs", "value": "0.260 % dose/gram and 0.279 % dose/gram"},
      {"measurement": "Tissue distribution of [^18F]-EF5 in rats bearing tumors", "setting": "[2]; Bone, 3 hrs", "value": "0.040 % dose/gram and 0.079 % dose/gram"},
      {"measurement": "Tissue distribution of [^18F]-EF5 in rats bearing tumors", "setting": "[2]; Bone, 4 hrs", "value": 0.071, "unit": "% dose/gram"},
      {"measurement": "Tissue distribution of [^18F]-EF5 in rats bearing tumors", "setting": "[2]; Brain, 3 hrs", "value": "0.116 % dose/gram and 0.176 % dose/gram"},
      {"measurement": "Tissue distribution of [^18F]-EF5 in rats bearing tumors", "setting": "[2]; Brain, 4 hrs", "value": 0.150, "unit": "% dose/gram"},
      {"measurement": "Tissue distribution of [^18F]-EF5 in rats bearing tumors", "setting": "[2]; Heart, 3 hrs", "value": "0.209 % dose/gram and 0.318 % dose/gram"},
      {"measurement": "Tissue distribution of [^18F]-EF5 in rats bearing tumors", "setting": "[2]; Heart", "value": 0.277, "unit": "% dose/gram"},
      {"measurement": "Tissue distribution of [^18F]-EF5 in rats bearing tumors", "setting": "[2]; Intestine, 3 hrs", "value": "0.410 % dose/gram and 0.477 % dose/gram"},
      {"measurement": "Tissue distribution of [^18F]-EF5 in rats bearing tumors", "setting": "[2]; Intestine, 4 hrs", "value": 0.376, "unit": "% dose/gram"},
      {"measurement": "Tissue distribution of [^18F]-EF5 in rats bearing tumors", "setting": "[2]; Kidney, 3 hrs", "value": "0.510 % dose/gram and 0.650 % dose/gram"},
      {"measurement": "Tissue distribution of [^18F]-EF5 in rats bearing tumors", "setting": "[2]; Kidney, 4 hrs", "value": 0.500, "unit": "% dose/gram"},
      {"measurement": "Tissue distribution of [^18F]-EF5 in rats bearing tumors", "setting": "[2]; Liver, 3 hrs", "value": "0.399 % dose/gram and 0.578 % dose/gram"},
      {"measurement": "Tissue distribution of [^18F]-EF5 in rats bearing tumors", "setting": "[2]; Liver, 4 hrs", "value": 0.489, "unit": "% dose/gram"},
      {"measurement": "Tissue distribution of [^18F]-EF5 in rats bearing tumors", "setting": "[2]; Lung, 3 hrs", "value": "0.217 % dose/gram and 0.357 % dose/gram"},
      {"measurement": "Tissue distribution of [^18F]-EF5 in rats bearing tumors", "setting": "[2]; Lung, 4 hrs", "value": 0.326, "unit": "% dose/gram"},
      {"measurement": "Tissue distribution of [^18F]-EF5 in rats bearing tumors", "setting": "[2]; Muscle, 3 hrs", "value": "0.162 % dose/gram and 0.246 % dose/gram"},
      {"measurement": "Tissue distribution of [^18F]-EF5 in rats bearing tumors", "setting": "[2]; Muscle, 4 hrs", "value": 0.187, "unit": "% dose/gram"},
      {"measurement": "Tissue distribution of [^18F]-EF5 in rats bearing tumors", "setting": "[2]; Spleen, 3 hrs", "value": "0.192 % dose/gram and 0.294 % dose/gram"},
      {"measurement": "Tissue distribution of [^18F]-EF5 in rats bearing tumors", "setting": "[2]; Spleen, 4 hrs", "value": 0.242, "unit": "% dose/gram"},
      {"measurement": "Visibility of the tumor in the PET image", "setting": "[3]", "value": "clearly visible"}
    ]},
    {"smiles": "O=[N+]([O-])c1nccn1CC(O)C[18F]", "note": "(stereo not shown) [[^18F]-fluoromisonidazole]", "values": [
      {"measurement": "Stability in vivo", "setting": "[4]", "value": "not stable in vivo"}
    ]}
  ]
}
